Measured values from patent publication US5132409A, “Macrocyclic chelating agents and chelates thereof” (Bracco Industria Chimica S.p.A., priority 1987, dated 1992).

What was measured:
[1] = Determination of relaxivity (MINISPEC PC 120 BRUKER, 20 MHz proton, 39° C.); format: physicochemical; settings: pH 7.3, aqueous solvent, 0-5 mM; for Transverse relaxivity (R2): Carr, Purcell, Meiboom and Gill sequence; for Longitudinal relaxivity (R1): Inversion Recovery
Description: Determination of the Relaxivity of the Compounds of the Present Invention
A) Apparatus: […] PC 120 (BRUKER)
B) Observation frequency:
39° C., with pre-thermostatization
of the NMR test tube for 10 min
at the operative temperature
in the range from 0 to 5 mM with the
following specific measuring points:
F) pH: 7.3, to be checked again
potentiometrically before the
relaxation measurement.
Longitudinal relaxivity (R1) measurements were calculated using the "Inversion Recovery" sequence with an 8 point minimum and a 3 parameter fit, according to the program provided for the […] 120 BRUKER instrument, by which measurements were taken.
Transverse relaxivity (R2) measurements were calculated using the sequence of Carr, Purcell, Meiboom and Gill, according to the program provided for the […] 120 BRUKER instrument, by means of which measurements were taken, adjusting the apparatus in such a way as to observe the decay of the signal to about 1/3 of the starting value, with a score number higher or equal to 10 and a 2 parameter fit.

[2] = background statement in words; cited from earlier work
[3] = test system: mouse; assay: Determination of LD50 in the mouse by intravenous administration; format: in vivo; settings: male and female mice, strain Crl:CD1(ICR)BR
Source text: Determination of LD50 in the Mouse by Intravenous Administration of the Compounds of the Present Invention
In table II are reported, as non-limiting examples, the LD50 values for compounds A and B of the present invention, in comparison with GdCl3 and with Gd/DTPA neutralized with N-methylglucamine.
*male and female mice were used, Strain: Crl:CD1(ICR)BR

Compound | Transverse relaxivity (R2) [1] | Longitudinal relaxivity (R1) [1] | removal from the blood stream and from the lesions of the tissues under examination [2] | LD50 in the mouse [3]
CNC[C@H](O)[C@@H](O)[C@H](O)[C@H](O)CO.CNC[C@H](O)[C@@H](O)[C@H](O)[C@H](O)CO.O=C([O-])CN(CCN(CC(=O)[O-])CC(=O)O)CCN(CC(=O)[O-])CC(=O)O.[Gd+3] [Gd/DTPA, reference compound] | 5.15 ± 0.02 mM/s | 4.08 ± 0.01 mM/s | too quickly removed from the blood stream and from the lesions of the tissues under examination | 4.8 (4.47-5.16) mmol/kg
[Cl][Gd]([Cl])[Cl] [GdCl3, reference compound] | – | – | – | 0.28 (0.24-0.32) mmol/kg
D(-)-N-methylglucamine salt of Gd^(3+) /2-[1,4,7,10-tetraaza-4,7,10-tri(carboxymethyl)-cyclododecane-1-yl]-3-hydroxypropionic acid complex | 5.06 ± 0.01 mM/s | 3.72 ± 0.01 mM/s | – | 13.1 (12.2-14.1) mmol/kg
D(-)-N-methylglucamine salt of the Gd^(3+) /2-[1,4,7,10-tetraaza-4,7,10-tri(carboxymethyl)-cyclododecane-1-yl]-3-benzyloxypropionic acid complex | 5.67 ± 0.02 mM/s | 4.15 ± 0.01 mM/s | – | 8.8 (7.79-9.94) mmol/kg
